According to ChEMBL document CHEMBL1201862, “PubChem BioAssay data set” (2004):
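Interpolation was linear, between the two tested concentrations surrounding the appropriate level; five concentrations were tested over 48 hours in 96-well plates. The concentration for 50% growth inhibition is given as GI50.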 Calls of active or inactive are those of the source. Rule as the data show it: active = GI50 up to about 1.1 µM and inactive = higher.

Tests used:
Assay in all cases: inhibition of tumour cell growth, NCI panel, 48 h
HL-60 = system: HL-60
NCI-H226 = system: NCI-H226
RPMI-8226 = system: RPMI-8226
HCT-116 = system: HCT-116
HT-29 = system: HT-29
DLD-1 = system: DLD-1
HCC 2998 = system: HCC 2998
KM-20L2 = system: KM-20L2
DMS-114 = system: DMS-114
A549 = system: A549
UACC-62 = system: UACC-62
OVCAR-8 = system: OVCAR-8
SK-MEL-5 = system: SK-MEL-5
HOP-62 = system: HOP-62
M19-MEL = system: M19-MEL
CAKI-1 = system: CAKI-1
SK-MEL-2 = system: SK-MEL-2
NCI/ADR-RES = system: NCI/ADR-RES
UO-31 = system: UO-31
SF-268 = system: SF-268
SN12C = system: SN12C
KM12 = system: KM12
OVCAR-4 = system: OVCAR-4
IGROV-1 = system: IGROV-1
HOP-18 = system: HOP-18
SNB-78 = system: SNB-78
SNB-19 = system: SNB-19
HOP-92 = system: HOP-92
SF-539 = system: SF-539
SK-OV-3 = system: SK-OV-3
SF-295 = system: SF-295
OVCAR-3 = system: OVCAR-3
NCI-H460 = system: NCI-H460
LOX IMVI = system: LOX IMVI
DMS-273 = system: DMS-273
SW-620 = system: SW-620
SNB-75 = system: SNB-75
COLO 205 = system: COLO 205
HCT-15 = system: HCT-15
MCF7 = system: MCF7
SR = system: SR
Malme-3M = system: Malme-3M
TK-10 = system: TK-10
RXF 393 = system: RXF 393
M14 = system: M14
CCRF-CEM = system: CCRF-CEM
K562 = system: K562
NCI-H522 = system: NCI-H522
SK-MEL-28 = system: SK-MEL-28
ACHN = system: ACHN
786-0 = system: 786-0
EKVX = system: EKVX
MOLT-4 = system: MOLT-4
NCI-H23 = system: NCI-H23
LXFL 529 = system: LXFL 529
UACC-257 = system: UACC-257
U-251 = system: U-251
BT-549 = system: BT-549
PC-3 = system: PC-3
OVCAR-5 = system: OVCAR-5
T47D = system: T47D
DU-145 = system: DU-145
MDA-MB-435 = system: MDA-MB-435
A498 = system: A498
Hs-578T = system: Hs-578T
MDA-N = system: MDA-N
MDA-MB-231 = system: MDA-MB-231

Measured: GI50

Nc1ccn(C2C=C(CO)C(O)C2O)c(=O)c1 (stereo not drawn)
inactive: HL-60 > 625 µM | NCI-H226 > 625 µM | RPMI-8226 > 625 µM | HCT-116 > 625 µM | HT-29 > 625 µM | DLD-1 > 62.5 µM | HCC 2998 > 625 µM | KM-20L2 > 625 µM | DMS-114 > 625 µM | A549 > 625 µM | UACC-62 > 625 µM | OVCAR-8 > 625 µM | SK-MEL-5 > 625 µM | HOP-62 > 625 µM | M19-MEL > 625 µM | CAKI-1 > 625 µM | SK-MEL-2 > 625 µM | NCI/ADR-RES > 625 µM | UO-31 > 625 µM | SF-268 > 625 µM | SN12C > 625 µM | KM12 > 625 µM | OVCAR-4 > 625 µM | IGROV-1 > 625 µM | HOP-18 > 625 µM | SNB-78 > 625 µM | SNB-19 > 625 µM | HOP-92 > 625 µM | SF-539 > 625 µM | SK-OV-3 > 625 µM | SF-295 > 625 µM | OVCAR-3 > 625 µM | NCI-H460 > 625 µM | LOX IMVI > 625 µM | DMS-273 > 625 µM | SW-620 > 625 µM | SNB-75 > 625 µM | COLO 205 > 625 µM | MCF7 > 625 µM
> 625 µM: HCT-15

CC(=O)OC1[C@H]2c3cc4c(cc3CN3CCC(C[C@@H]1OC(C)=O)C23)OCO4 (stereo partly drawn)
inactive: SR > 75 µM | HL-60 > 75 µM | NCI-H226 8.13 µM | Malme-3M > 75 µM | TK-10 > 75 µM | RXF 393 > 75 µM | RPMI-8226 > 75 µM | HCT-116 > 75 µM | HT-29 > 75 µM | DLD-1 > 75 µM | M14 > 75 µM | HCC 2998 > 75 µM | KM-20L2 > 75 µM | DMS-114 > 75 µM | A549 > 75 µM | UACC-62 > 75 µM | CCRF-CEM > 75 µM | OVCAR-8 > 75 µM | HOP-62 > 75 µM | M19-MEL > 75 µM | UO-31 > 75 µM | SF-268 > 75 µM | K562 > 75 µM | SN12C > 75 µM | KM12 > 75 µM | NCI-H522 > 75 µM | IGROV-1 > 75 µM | SK-MEL-28 > 75 µM | ACHN > 75 µM | 786-0 > 75 µM | SNB-78 > 75 µM | EKVX > 75 µM | MOLT-4 > 75 µM | SNB-19 > 75 µM | NCI-H23 > 75 µM | SF-539 > 75 µM | SK-OV-3 > 75 µM | SF-295 > 75 µM | OVCAR-3 > 75 µM | LXFL 529 > 75 µM | NCI-H460 > 75 µM | LOX IMVI > 75 µM | UACC-257 > 75 µM | DMS-273 > 75 µM | SW-620 > 75 µM | SNB-75 > 75 µM | COLO 205 > 75 µM | U-251 > 75 µM
> 75 µM: HCT-15

CC1CCCCCC(=O)c2c(O)cc(O)cc2CC(=O)O1 (stereo not drawn) [CURVULARIN]
inactive: SR 44.5 µM | HL-60 54.3 µM | NCI-H226 > 100 µM | Malme-3M > 100 µM | TK-10 90.2 µM | BT-549 54.1 µM | RXF 393 > 100 µM | RPMI-8226 67.8 µM | HCT-116 > 100 µM | PC-3 66.8 µM | OVCAR-5 > 100 µM | T47D 59.2 µM | HT-29 > 100 µM | M14 > 100 µM | HCC 2998 > 100 µM | A549 > 100 µM | UACC-62 > 100 µM | CCRF-CEM 74.3 µM | OVCAR-8 > 100 µM | SK-MEL-5 > 100 µM | HOP-62 > 100 µM | CAKI-1 > 100 µM | DU-145 > 100 µM | SK-MEL-2 76.6 µM | MDA-MB-435 > 100 µM | NCI/ADR-RES > 100 µM | UO-31 45 µM | SF-268 > 100 µM | A498 > 100 µM | K562 41.6 µM | SN12C > 100 µM | KM12 > 100 µM | NCI-H522 > 100 µM | OVCAR-4 > 100 µM | IGROV-1 > 100 µM | SK-MEL-28 > 100 µM | ACHN > 100 µM | 786-0 > 100 µM | Hs-578T > 100 µM | MDA-N > 100 µM | EKVX 61.5 µM | MOLT-4 73.8 µM | SNB-19 > 100 µM | NCI-H23 48.9 µM | HOP-92 > 100 µM | MDA-MB-231 > 100 µM | SF-539 > 100 µM | SK-OV-3 > 100 µM | SF-295 94.8 µM | OVCAR-3 96.6 µM | NCI-H460 98.2 µM | LOX IMVI 43.9 µM | UACC-257 55.6 µM | SW-620 > 100 µM | SNB-75 57.4 µM | COLO 205 > 100 µM | U-251 > 100 µM | MCF7 > 100 µM
> 100 µM: HCT-15
